Data set [1] relates to 293-GCC#2 tumors. Description: Efficacy study with 5F9vcMMAF and 5F9-DMx in 293-GCC#2 s.c. tumors. Format: in vivo. As to conditions: 293-GCC#2 bearing SCID mice, 75 and 150 ug/kg toxin, q14d schedule. The method, then:
5F9-SPDB-DM4, 5F9-SMCC-DM1 and 5F9vcMMAF were tested for efficacy in the 293-GCC#2 tumor model at two doses (75 μg/kg and 150 μg/kg toxin), on a q14d×5 schedule. Specifically, this study included vehicle-treated control, Sc209-DM1 (150 μg/kg DM1 eq), Sc209-DM4 (150 μg/kg DM4 eq), Sc209-vcMMAF (150 μg/kg MMAF eq), 5F9-DM1 (150 μg/kg DM1 eq), 5F9-DM1 (75 μg/kg DM1 eq), 5F9-DM4 (150 μg/kg DM4 eg), 5F9-DM4 (75 μg/kg DM4 eq), 5F9-vcMMAF (150 μg/kg MMAF eq), and 5F9-vcMMAF (75 μg/kg MMAF eq). Taconic females mice bearing 293-GCC#2 cells (10 mice per group) were used.
FIG. 1 depicts tumor growth in 293-GCC#2 bearing SCID mice treated with 5F9vc-MMAF, -DM1, and -DM4 on a q14d schedule. […] Therefore at these doses and schedules, 5F9-SPDB-DM4 had the greatest efficacious differential from its control conjugate.
5F9-SPDB-DM4 and 5F9-SMCC-DM1 were tested for efficacy in the 293-GCC#2 tumor model at two doses (75 ug/kg and 150 ug/kg toxin) on a q7d×5 schedule. Specifically, this study included vehicle-treated control, 5F9 alone (15 mg/kg), DM1 (300 μg/kg), DM4 (300 μg/kg), Sc209-DM1 (150 μg/kg DM1 eq), Sc209-DM4 (150 μg/kg DM4 eq), Sc209-vcMMAF (150 μg/kg MMAF eq), 5F9-DM1 (150 μg/kg DM1 eq), 5F9-DM1 (75 μg/kg DM1 eq), 5F9-DM4 (150 μg/kg DM4 eq), and 5F9-DM4 (75 μg/kg DM4 eq). Taconic females mice bearing 293-GCC#2 cells (10 mice per group) were used.

The test system of data set [2] is 293-GCC#2 tumors. Description: PD study: phosphohistone H3 positive tumor cells after single iv dose. It is filed as in vivo, mice. The note with it: 75 or 150 ug/kg toxin. The method, then:
An alternative tumor model used 293-GCC#2 cells. A PD study for 5F9 ADCs in 293-GCC#2 tumor bearing mice was performed. Mice were dosed with single doses of 5F9vcMMAF at 75 ug/kg or 150 ug/kg and serum was taken at timepoints from 1 hr through 4 days for PD analysis of phosphohistone H3 to test antimitotic effects of the toxin on tumor cells. Phospho-histone H3 was detected by antibody (Upstate Biotechnology, now Millipore, Billerica, Mass.) staining of paraffin embedded sections of tumors.
Similar studies measured the phosphohistone levels in 293-GCC#2 tumor-bearing mice treated with 5F9vcMMAF, 5F9-SPDB-DM4 and 5F9-SMCC-DM1. Mice were dosed with single doses at 150 ug/kg and serum was taken at timepoints from 1 hr through 21 days for PK analysis of both total antibody and toxin-conjugated antibody. The percentage of phosphohistone H3 positive cells in 293-GCC#2 tumors increased in response to all three ADCS: 5F9vcMMAF, 5F9-SMCC-DM1 and 5F9-SPDB-DM4. Maximal phosphohistone H3 levels were 3- to 5-fold increased over baseline, with peaks at 24 hours post-injection.

In data set [3] the test system is 293 GCC#2 tumors. Description: Efficacy study with auristatin conjugates in 293 GCC#2 tumors. Also noted: TGI (tumor growth inhibition) / TGD (tumor growth delay): unit not given here. Format: in vivo, SCID mice. The protocol: 293 GCC#2 tumor-bearing SCID mice were treated with 5F9 conjugates with vc MMAE, vcMMAF or mcMMAF at three doses in comparison with 209 conjugates of these toxins or with free toxins or vehicle control. Doses were administered iv on a q7d×4 schedule. Tumors were harvested at days 3, 7, 10, 13 and 17. […] Table 18 provides a summary of the results (TGI=tumor growth inhibition, T/C=treatment/control, TGD=tumor growth delay, CR/PR=complete response/partial response; p value=measure to judge statistical significance, NS=not significant).
All three of these ADCs were efficacious in the 293 GCC#2 model on a q7d schedule.

Data set [4] concerns 293 GCC#2 cells. Format: cell-based, human. The note with it: 293 cell model (293 GCC#2 vs control cells / 209 ADCs).
In data set [5] the test system is HT29 GCC#5 cells. It is filed as cell-based, human. The note with it: HT29 cell model.
Data set [6] relates to HT29-GCC#5 tumors. Put plainly: Pilot efficacy studies in HT29-GCC#5 s.c. tumors. Format: in vivo, mice. The note with it: 150 μg/kg on a q3d×5 schedule. The method, then:
Studies were performed to determine efficacious conjugates and dosage regimens in mice bearing HT29-GCC#5 tumors. Mice were dosed with single or multiple doses. These studies determined that there was toxicity at too frequent dosing at higher levels of toxin conjugate (e.g., 150 μg/kg 5F9vcMMAF on a q3d×5 schedule). Another study determined that q14d×5 schedule was too infrequent in this model to allow some toxin conjugates to show significant efficacy vs. controls.

Data set [7] deals with PHTX-9c primary human colon tumor xenograft. Put plainly: Antitumor activity in PHTX-9c primary human colon tumor xenograft (Study A and Study B). Format: in vivo, CB-17 SCID mice. The protocol: Female CB-17 SCID mice (eight weeks old) were inoculated subcutaneously (SC) into the flank with PHTX-9c tumor fragments (2 mm×2 mm). Tumor growth was monitored twice per week using vernier calipers and the mean tumor volume was calculated using the formula (0.5×[length×width^2]). When the mean tumor volume reached approximately 150 mm^3 (Study A) or 160 mm^3 (Study B), animals were randomized into treatment groups (n=10/group for Study A and n=9/group for Study B).
Doses were administered on Days 1, 8, and 15 for the QW schedule and Days 1, 4, 8, 11, 15, and 18 for the BIW schedule. […] The equivalent dose of linker+MMAE is 4% of the 5F9-vcMMAE dose. These calculations are based on a mean 3.9 MMAE molecules per antibody and a free antibody molecular weight of 150 kD. Actual antibody molecular weight will vary slightly due to degree of glycosylation.
Tumor volume and body weight were measured twice weekly and were continued beyond the treatment period to measure regrowth kinetics, as evidenced by tumor growth delay (TGD). Tumor volume measurements were continued until tumor volume reached 10% of the body weight in a single mouse within a treatment group, at which time the group was terminated. The percentage of tumor growth inhibition (TGI) ([mean tumor volume of the control group−mean tumor volume of a treated group]/mean tumor volume of the control group; a T/C ratio) was determined on Day 20. The T/C ratios across a treatment group were compared to the T/C ratios of the control group using a two-tailed Welch's t-test.
The differences in the tumor growth trends over time between pairs of treatment groups were assessed using linear mixed effects regression models. These models account for the fact that each animal was measured at multiple time points. A separate model was fit for each comparison, and the areas under the curve (AUC) for each treatment group were calculated using the predicted values from the model. The percent decrease in AUC (dAUC) relative to the reference group was then calculated.
Background: In xenograft studies the graft and the host belong to different species.

For data set [8], the system named is CT26 hGCC/luc #32 cells. Description: Pilot efficacy study with naked antibody in CT26 hGCC/luc #32 disseminated model. As to conditions: 40 mg/kg.

Square brackets hold non-standard residues; d marks the D form. Peptide text beside a SMILES is read from it. * marks the point of attachment. Dolaproine = CO[C@@H]([C@@H]1CCCN1)[C@@H](C)C(=O)O; Hexanoyl(6-maleimido) = O=C1C=CC(=O)N1CCCCCC(=O)*; Dil = CC[C@H](C)[C@H](NC)[C@@H](CC(=O)O)OC; X1 = C[C@@H](N*)[C@@H](O)c1ccccc1; NMeV = CN[C@H](C(=O)O)C(C)C

For “5F9-SMCC-DM1: 5F9 conjugated to DM1 using SMCC heterobifunctional crosslinker”, in data set [1], the “Tumor growth (efficacy)” value is given as “efficacious, however less so than 5F9-SPDB-DM4 at 150 ug/kg”. Moreover, the “Percentage of phosphohistone H3 positive cells in 293-GCC#2 tumors” value in data set [2] is on record as “increased”.
Take “5F9-vcMMAE: 5F9 mAb conjugated to MMAE through the vc (Val-Cit) linker; average drug loading about 3.6”: in data set [3] (75 μg/kg iv q7d×4), the “T/C (treatment/control)” value was found to be 0.45, the “TGD (tumor growth delay)” value was 4.4 and the “TGI (tumor growth inhibition)” value came out at 54.5. In data set [3] (150 μg/kg iv q7d×4), the “T/C (treatment/control)” value stood at 0.17 and the “TGI (tumor growth inhibition)” value is 83.5. In data set [3] (300 μg/kg iv q7d×4), the “T/C (treatment/control)” value was determined as 0.03 and the “TGI (tumor growth inhibition)” value was 96.9.
Consider “5F9-vcMMAF: 5F9 anti-GCC antibody molecule conjugated with mc-vc-MMAF”, for which the “T/C (treatment/control)” value was 0.35 in data set [3] (37.5 μg/kg iv q7d×4), 0.12 in data set [3] (75 μg/kg iv q7d×4) and 0.03 in data set [3] (150 μg/kg iv q7d×4). Also, the “TGD (tumor growth delay)” value in data set [3] (37.5 μg/kg iv q7d×4) is reported as 7.1. The results for the “TGI (tumor growth inhibition)” value in data set [3] (37.5 μg/kg iv q7d×4), in data set [3] (75 μg/kg iv q7d×4) and in data set [3] (150 μg/kg iv q7d×4) were 65.2, 88.5 and 97, respectively. Besides, the “Tumor growth inhibition (efficacy)” value in data set [3] (293 GCC#2 model, iv, q7d×4 schedule) is given as “more potent than 5F9-vcMMAE”. Also, the “Tumor growth (efficacy)” value in data set [1] is on record as “the most efficacious”. Moreover, the “Percentage of phosphohistone H3 positive cells in 293-GCC#2 tumors” value in data set [2] was “increased”. Further, the “Target enhanced cell kill” value in data set [4] and in data set [5] was “target enhanced cell kill” throughout. Also, the Toxicity entry in data set [6] is reported as “toxicity”.
Consider `CC[C@H](C)[C@@H]([C@@H](CC(=O)N1CCC[C@H]1[C@H](OC)[C@@H](C)C(=O)N[C@H](C)[C@@H](O)c1ccccc1)OC)N(C)C(=O)[C@@H](NC(=O)[C@@H](NC)C(C)C)C(C)C` [Free MMAE] (H-[NMeV]V[Dil][Dolaproine]-X1), for which, in data set [3] (300 μg/kg iv q7d×4), the “CR/PR (complete response/partial response)” value came out at 0, the “T/C (treatment/control)” value is 0.64, the “TGD (tumor growth delay)” value is listed as 2 and the “TGI (tumor growth inhibition)” value was 35.6.
As to `CC[C@H](C)[C@@H]([C@@H](CC(=O)N1CCC[C@H]1[C@H](OC)[C@@H](C)C(=O)N[C@@H](Cc1ccccc1)C(=O)O)OC)N(C)C(=O)[C@@H](NC(=O)[C@H](C(C)C)N(C)C(=O)CCCCCN1C(=O)C=CC1=O)C(C)C` [Free mcMMAF] ({Hexanoyl(6-maleimido)}-[NMeV]V[Dil][Dolaproine]F-OH), in data set [3] (150 μg/kg iv q7d×4), the “CR/PR (complete response/partial response)” value worked out at 0, the “T/C (treatment/control)” value is on record as 1.03, the “TGD (tumor growth delay)” value is −1.3 and the “TGI (tumor growth inhibition)” value was −3.4.
On to `CC[C@H](C)[C@@H]([C@@H](CC(=O)N1CCC[C@H]1[C@H](OC)[C@@H](C)C(=O)N[C@H](C)[C@@H](O)c1ccccc1)OC)N(C)C(=O)[C@@H](NC(=O)[C@@H](NC)C(C)C)C(C)C` [MMAE, monomethyl auristatin E] (H-[NMeV]V[Dil][Dolaproine]-X1), for which the TGI entry was “no tumor growth inhibition” in data set [7] (0.075 mg/kg IV QW); “no tumor growth inhibition” in data set [7] (0.135 mg/kg IV QW); “no tumor growth inhibition” in data set [7] (0.15 mg/kg IV QW); 5.0 (p > 0.05) % in data set [7] (Study A, 0.075 mg/kg IV QW × 3 doses, Day 20); 11.1 (p > 0.05) % in data set [7] (Study A, 0.15 mg/kg IV QW × 3 doses, Day 20); 2.2 (p > 0.05) % in data set [7] (Study B, 0.135 mg/kg IV QW × 3 doses, determined on Day 20).
As to “sc209: human IgG1 monoclonal antibody raised against an unrelated target, with no reactivity to GCC; negative control [reference compound]”, the “T/C compared to 0.9% NaCl group” value in data set [8] was 0.64. For the same compound, the “Lung weight, T test P vs. vehicle” value in data set [8] (end of study) is reported as 0.4.

(Values after US8785600B2, “Anti-GCC antibody molecules and related compositions and methods” (Millennium Pharmaceuticals, Inc., priority 2009, dated 2014).)
